Tests used:
Assay type in all cases: cell-based
[1] = test system: PGD2 production from IgE-stimulated RBL-2H3 cells; experiment: Suppressing action on PGD2 production from IgE-stimulated RBL-2H3 cells; settings: Rattus norvegicus, 10 min, IgE/DNP-BSA stimulated RBL-2H3 cells, read-out: PGD2 production suppression ratio
Source text: (§1) 2. Suppressing Action on PGD2 and LTB4 Production from IgE-Stimulated RBL-2H3 Cells
(§2) Suppressing action on PGD2 and LTB4 production caused by IgE as an allergic stimulant was investigated by the following method. Cells of RBL-2H3, which is a rat mastocytoma cell line (purchased from ATCC), were suspended in DEMEM medium (GIBCO) containing 10% fetal bovine serum (BioFluid), inoculated to each well of 48-well culture plate at a density of 2×10^4 cells/well and cultured overnight. Then, IgE antiserum directed to dinitrophenylated BSA (henceforth DNP-BSA) was further added to each well, and the cells were cultured for 30 minutes. Then, the medium was changed to DEMEM medium containing 0.5% fetal bovine serum, a test compound was added with each well, and DNP-BSA was further added at a final concentration of 100 ng/ml as a stimulant. Ten minutes after the stimulant was added, the culture supernatant was collected, and the PGD2 concentration and LTB4 concentration in the culture supernatant were measured by using EIA kit (CAYMAN). By using a well which was not added with the stimulant as a negative control and a well which was added only with the stimulant as a positive control, suppressing ratios on mediator production were calculated from the production amounts of the mediators in the well added with the test compound using the following equation. PGD2 or LTB4 production suppression ratio=[1−(C−B)/(A−B)]×100 • A: PGD2 or LTB4 production amount of positive control • B: PGD2 or LTB4 production amount of negative control • C: PGD2 or LTB4 production amount in well added with test compound
(§3) Further, as control compounds for comparison, reference compound (1), 3-(2-cyclohexylmethyloxy-1,1′-biphenyl-5-yl)propionic acid described in WO99/19291, reference compounds (2) and (3), [2-(5,6,7,8-tetrahydro-5,5,8,8-tetramethyl-2-naphthalenyl)methyloxy-1,1′-biphenyl-5-yl]carboxylic acid [reference compound (2)] and 3-[3′-carboxy-2-(5,6,7,8-tetrahydro-5,5,8,8-tetramethyl-2naphthalenyl)methyloxy-1,1′-biphenyl-6-yl]propionic acid [reference compound (3)] described in U.S. Pat. No. 5,391,817 and Japanese Patent Unexamined Publication (Kokai) No. 7-22399, respectively, were used, and activities thereof were similarly measured.

[2] = test system: LTB4 production from IgE-stimulated RBL-2H3 cells; experiment: Suppressing action on LTB4 production from IgE-stimulated RBL-2H3 cells; settings: Rattus norvegicus, 10 min, IgE/DNP-BSA stimulated RBL-2H3 cells, read-out: LTB4 production suppression ratio
Source text: as §1, §2, §3

[3] = test system: PGE2 production from IL-1β-stimulated MG-63 cells; experiment: Suppressing action on PGE2 production from IL-1β-stimulated MG-63 cells; settings: Homo sapiens, IL-1β 1 ng/ml, 18 hours, read-out: PGE2 production suppression ratio
Summary of the method: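 Human osteosarcoma MG-63 cells (2×10^4/well) switched to 0.5% FBS medium, treated with compound, then stimulated with IL-1β at 1 ng/ml final for 18 h. Supernatant PGE2 measured by EIA; suppression ratio calculated against stimulated and unstimulated wells.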

CCn1ccc2cc(-c3cc(CCC(=O)O)ccc3OCc3ccccc3Cl)ccc21 [Compound 250, 3-[4-(2-chlorophenylmethyloxy)-3-(1-ethyl-1H-indol-5-yl)phenyl]propionic acid]
inhibition at 0.4 µM [1]: ≥ 50% | inhibition at 0.4 µM [2]: ≥ 50% | inhibition at 0.4 µM [3]: ≥ 50%

O=C(O)CCc1ccc(OCc2ccc(Cl)cc2Cl)c(-c2ccc3[nH]ccc3c2)c1 [Compound 162, 3-[4-(2,4-dichlorophenylmethyloxy)-3-(1H-indol-5-yl)phenyl]propionic acid]
inhibition at 0.4 µM [1]: ≥ 50% | inhibition at 0.4 µM [2]: ≥ 50% | inhibition at 0.4 µM [3]: ≥ 50%

CNc1ccc2cc(-c3cc(CCC(=O)O)ccc3OCC3CCCC3)ccc2c1 [Compound 016, 3-{4-cyclopentylmethyloxy-3-[6-(N-methylamino)naphthalen-2-yl]phenyl}propionic acid]
inhibition at 0.4 µM [1]: ≥ 50% | inhibition at 0.4 µM [2]: ≥ 50% | inhibition at 0.4 µM [3]: ≥ 50%

CC1(C)CCC(C)(C)c2cc(COc3cccc(CCC(=O)O)c3-c3cccc(C(=O)O)c3)ccc21 [reference compound (3), 3-[3′-carboxy-2-(5,6,7,8-tetrahydro-5,5,8,8-tetramethyl-2naphthalenyl)methyloxy-1,1′-biphenyl-6-yl]propionic acid, reference compound]
inhibition at 0.4 µM [1]: 2.1% | inhibition at 0.4 µM [2]: -6.3%

CCn1ncc2cc(-c3cc(CCC(=O)O)cc(N)c3OC3Cc4ccccc4C3)ccc21 [Compound 489, 3-[3-amino-5-(1-ethyl-1H-indazol-5-yl)-4-(indan-2-yloxy)phenyl]propionic acid]
inhibition at 0.4 µM [1]: ≥ 50% | inhibition at 0.4 µM [2]: ≥ 50% | inhibition at 0.4 µM [3]: ≥ 50%

Cn1ncc2cc(-c3cc(CCC(=O)O)cc(O)c3OC3Cc4ccccc4C3)ccc21 [Compound 569, 3-[4-(indan-2-yloxy)-3-hydroxy-5-(1-methyl-1H-indazol-5-yl)phenyl]propionic acid]
inhibition at 0.4 µM [1]: ≥ 50% | inhibition at 0.4 µM [2]: ≥ 50% | inhibition at 0.4 µM [3]: ≥ 50%

O=C(O)CCc1cc(F)c(OC2CCCC2)c(-c2ccc3[nH]ncc3c2)c1 [Compound 481, 3-[4-cyclopentyloxy-3-fluoro-5-(1H-indazol-5-yl)phenyl]propionic acid]
inhibition at 0.4 µM [1]: ≥ 50% | inhibition at 0.4 µM [2]: ≥ 50% | inhibition at 0.4 µM [3]: ≥ 50%

Cn1ncc2cc(-c3cc(CCC(=O)O)cc(F)c3OC3CCCC3)ccc21 [Compound 483, 3-[4-cyclopentyloxy-3-fluoro-5-(1-methyl-1H-indazol-5-yl)phenyl]propionic acid]
inhibition at 0.4 µM [1]: ≥ 50% | inhibition at 0.4 µM [2]: ≥ 50% | inhibition at 0.4 µM [3]: ≥ 50%

O=C(O)CCc1ccc(OC2CCCCC2)c(-c2ccc3ccccc3c2)c1 [Compound 045, 3-[4-cyclohexyloxy-3-(naphthalen-2-yl)phenyl]propionic acid]
inhibition at 0.4 µM [1]: ≥ 50% | inhibition at 0.4 µM [2]: ≥ 50% | inhibition at 0.4 µM [3]: ≥ 50%

O=C(O)CCc1ccc(OCC2CCCC2)c(-c2ccc3cc(NCCO)ccc3c2)c1 [Compound 075, 3-{4-cyclopentylmethyloxy-3-[6-(2-hydroxyethylamino)naphthalen-2-yl]phenyl}propionic acid]
inhibition at 0.4 µM [1]: ≥ 50% | inhibition at 0.4 µM [2]: ≥ 50% | inhibition at 0.4 µM [3]: ≥ 50%

O=C(O)CCc1ccc(OCC2CCCC2)c(-c2ccc3cc(NC(=O)c4ccco4)ccc3c2)c1 [Compound 081, 3-(4-cyclopentylmethyloxy-3-{6-[(furan-2-carbonyl)amino]naphthalen-2-yl}phenyl)propionic acid]
inhibition at 0.4 µM [1]: ≥ 50% | inhibition at 0.4 µM [2]: ≥ 50% | inhibition at 0.4 µM [3]: ≥ 50%

Nc1cc(CCC(=O)O)cc(-c2ccc3[nH]ncc3c2)c1OC1Cc2ccccc2C1 [Compound 486, 3-[3-amino-4-(indan-2-yloxy)-5-(1H-indazol-5-yl)phenyl]propionic acid]
inhibition at 0.4 µM [1]: ≥ 50% | inhibition at 0.4 µM [2]: ≥ 50% | inhibition at 0.4 µM [3]: ≥ 50%

CN(C)c1cc(CCC(=O)O)cc(-c2ccc3c(cnn3C)c2)c1OC1Cc2ccccc2C1 [Compound 586, 3-[4-(indan-2-yloxy)-3-(N,N-dimethylamino)-5-(1-methyl-1H-indazol-5-yl)phenyl]propionic acid]
inhibition at 0.4 µM [1]: ≥ 50% | inhibition at 0.4 µM [2]: ≥ 50% | inhibition at 0.4 µM [3]: ≥ 50%

Cc1cc(CCC(=O)O)cc(-c2ccc3c(cnn3C)c2)c1OC1CCCC1 [Compound 572, 3-[4-cyclopentyloxy-3-methyl-5-(1-methyl-1H-indazol-5-yl)phenyl]propionic acid]
inhibition at 0.4 µM [1]: ≥ 50% | inhibition at 0.4 µM [2]: ≥ 50% | inhibition at 0.4 µM [3]: ≥ 50%

O=C(O)CCc1ccc(OCc2cccc(F)c2)c(-c2ccc3ccccc3c2)c1 [Compound 035, 3-[4-(3-fluorophenylmethyloxy)-3-(naphthalen-2-yl)phenyl]propionic acid]
inhibition at 0.4 µM [1]: ≥ 50% | inhibition at 0.4 µM [2]: ≥ 50%

O=C(O)CCc1ccc(OCCc2cccc(Cl)c2)c(-c2ccc3[nH]ccc3c2)c1 [Compound 211, 3-{4-[2-(3-chlorophenyl)ethyloxy]-3-(1H-indol-5-yl)phenyl}propionic acid]
inhibition at 0.4 µM [1]: ≥ 50% | inhibition at 0.4 µM [2]: ≥ 50% | inhibition at 0.4 µM [3]: ≥ 50%

Nc1nc2ccc(-c3cc(CCC(=O)O)ccc3OCC3CCCC3)cc2s1 [Compound 287, 3-[3-(2-aminobenzothiazol-6-yl)-4-cyclopentylmethyloxyphenyl]propionic acid]
inhibition at 0.4 µM [1]: ≥ 50% | inhibition at 0.4 µM [2]: ≥ 50% | inhibition at 0.4 µM [3]: ≥ 50%

CC1(C)CCC(C)(C)c2cc(COc3ccc(C(=O)O)cc3-c3ccccc3)ccc21 [reference compound (2), [2-(5,6,7,8-tetrahydro-5,5,8,8-tetramethyl-2-naphthalenyl)methyloxy-1,1′-biphenyl-5-yl]carboxylic acid, reference compound]
inhibition at 0.4 µM [1]: -17.6% | inhibition at 0.4 µM [2]: -15.3%

O=C(O)CCc1ccc(OCC2CCCCC2)c(-c2ccccc2)c1 [reference compound (1), 3-(2-cyclohexylmethyloxy-1,1′-biphenyl-5-yl)propionic acid, reference compound]
inhibition at 0.4 µM [1]: -12.9% | inhibition at 0.4 µM [2]: -5.9%
